This is an account of results in ChEMBL document CHEMBL6103576, “Design, synthesis, and antiviral activity of fragmented-lapatinib aminoquinazoline analogs towards SARS-CoV-2 inhibition” (Eur J Med Chem, 2025).

The term CC50 denotes the concentration giving 50% cytotoxicity. Broadly, the inhibition is the drop in the measured response relative to a control, in per cent. By EC50 is commonly meant the concentration at which the effect is half-maximal. What is called IC50 is the concentration that inhibits the measured activity by half.

Series [1] can be described thus: Cytotoxicity against African green monkey Vero E6 cells assessed as cell viability incubated for 48 hrs by CellTiter96 assay. The series is classed as toxicity, cell-based, Vero C1008. Conditions: chlorocebus sabaeus.
For series [2], the system named is SARS-CoV-2. The series is described as follows: Antiviral activity against SARS-CoV-2 infected in Vero E6 cells assessed as inhibition of viral replication at 10 uM measured for 72 hrs relative to control. The series is classed as functional. The settings on record: Severe acute respiratory syndrome coronavirus 2, Vero C1008.
A short description of series [3]: Cytotoxicity against African green monkey Vero E6 cells assessed as cell viability at 50 uM incubated for 48 hrs by CellTiter96 assay relative to control. The series is classed as toxicity, cell-based, Vero C1008. Conditions: chlorocebus sabaeus, read-out: Activity.
The test system of series [4] is SARS-CoV-2. The series is described as follows: Antiviral activity against SARS-CoV-2 infected in Vero E6 cells assessed as inhibition of viral replication at 50 uM measured for 72 hrs relative to control. The series is classed as functional. The settings on record: Severe acute respiratory syndrome coronavirus 2, Vero C1008.
The subject of series [5] is SARS-CoV-2. The series is described as follows: Antiviral activity against SARS-CoV-2 infected in Vero E6 cells assessed as inhibition of viral replication measured for 72 hrs. The series is classed as functional, organism-based. The settings on record: Severe acute respiratory syndrome coronavirus 2, Vero C1008, 72 h.
Series [6] concerns the target Replicase polyprotein 1ab (Severe acute respiratory syndrome coronavirus 2) (UniProt P0DTD1). The series is described as follows: Inhibition of SARS-CoV-2 MPro using E(EDAS)TSAVLQSGFRK(DABCYL) as substrate at 100 uM by fluorescence based analysis relative to control.
The target of series [7] is Replicase polyprotein 1ab (Severe acute respiratory syndrome coronavirus 2, UniProt P0DTD1). The series is described as follows: Inhibition of SARS-CoV-2 MPro using E(EDAS)TSAVLQSGFRK(DABCYL) as substrate by fluorescence based analysis.
For a further series, the system named is Vero C1008. The series is described as follows: Cytotoxicity against African green monkey Vero E6 cells assessed as cell viability at 10 uM incubated for 48 hrs by CellTiter96 assay. Format: toxicity, cell-based. The settings on record: chlorocebus sabaeus, vero c1008, 48 h.

The structures appear in SMILES notation.

For the compound `O=C(Nc1ccccc1F)c1cccc(COc2ccc(Nc3ncnc4ccccc34)cc2Cl)c1`, the CC50 at 48 h in series [1] is above 100 µM. In addition, the inhibition at 10 µM in the series on SARS-CoV-2 [2] was 82.2%. For the same compound, in series [3], the viability at 48 h, 50 µM is 13.6%. In addition, the inhibition at 50 µM in the series on SARS-CoV-2 [4] is 96.9%. For the same compound, the EC50 in the series with SARS-CoV-2 [5] is 1.1 µM. This compound registered an inhibition in series [6] of 68.6%.

With `O=C(Nc1cccc(C(F)(F)F)c1)c1ccc(COc2ccc(Nc3ncnc4ccccc34)cc2Cl)cc1`, in series [3], the viability at 48 h, 50 µM worked out at 17.3%. Also, the inhibition at 50 µM in the series on SARS-CoV-2 [4] amounted to 90%. Besides, the inhibition in series [6] was 55.7%.

On to `CS(=O)(=O)CCNCc1ccc(-c2ccc3ncnc(Nc4ccc(OCc5cccc(F)c5)c(Cl)c4)c3c2)o1` [LAPATINIB], for which the inhibition at 10 µM in the series on SARS-CoV-2 [2] came to 58.8%. The viability at 48 h, 50 µM in series [3] came to 71.1%. Besides, the inhibition at 50 µM in the series with SARS-CoV-2 [4] turned out to be 92.7%. For the same compound, in series [6], the inhibition was found to be 97.1%.

As to `COc1cccc(NC(=O)c2cccc(COc3ccc(Nc4ncnc5ccccc45)cc3Cl)c2)c1`, the viability at 48 h, 50 µM in series [3] amounted to 8.66%. Further, the inhibition at 50 µM in the series with SARS-CoV-2 [4] was 92.7%.

`O=C(Nc1ccccc1)c1cccc(COc2ccc(Nc3ncnc4ccccc34)cc2Cl)c1`: the viability at 48 h, 50 µM in series [3] is 1%. The inhibition at 50 µM in the series with SARS-CoV-2 [4] was 68.4%. Further, it took 3.75 µM to reach half-maximal inhibition in series [7] (IC50). Further, the inhibition in series [6] worked out at 98%.

Regarding `O=C(Nc1cccc(I)c1)c1cccc(COc2ccc(Nc3ncnc4ccccc34)cc2Cl)c1`, the viability at 48 h, 50 µM in series [3] amounted to 21%. Moreover, in the series with SARS-CoV-2 [4], the inhibition at 50 µM came out at 99%. For the same compound, the inhibition in series [6] is 55.7%.

Consider `O=C(Nc1ccccc1Cl)c1cccc(COc2ccc(Nc3ncnc4ccccc34)cc2Cl)c1`, for which the viability at 48 h, 50 µM in series [3] is 38%. The inhibition at 50 µM with SARS-CoV-2 [4] amounted to 95.9%. The compound also gave an inhibition in series [6] of 53%.

As to `Clc1cc(Nc2ncnc3ccccc23)ccc1OCc1cccc(Br)c1`, the viability at 48 h, 50 µM in series [3] is 28.1%. Moreover, the inhibition at 50 µM in the series on SARS-CoV-2 [4] was 68.4%. Further, the IC50 in series [7] amounted to 4.38 µM. In series [6], this compound had an inhibition of 82%.

With `COc1cccc(NC(=O)c2ccc(COc3ccc(Nc4ncnc5ccccc45)cc3Cl)cc2)c1`, in series [3], the viability at 48 h, 50 µM was found to be 22.6%. In addition, in the series on SARS-CoV-2 [4], the inhibition at 50 µM amounted to 82.2%. In series [6], this compound displayed an inhibition of 49.3%.

On to `O=C(Nc1ccc(Cl)cc1)c1ccc(COc2ccc(Nc3ncnc4ccccc34)cc2Cl)cc1`, for which the viability at 48 h, 50 µM in series [3] turned out to be 0%. Also, the inhibition at 50 µM with SARS-CoV-2 [4] worked out at 82.2%. Further, in series [7], it took 4.83 µM to reach half-maximal inhibition (IC50). In series [6], this compound displayed an inhibition of 73.2%.

Turning to `O=C(Nc1cccc(I)c1)c1ccc(COc2ccc(Nc3ncnc4ccccc34)cc2Cl)cc1`, the viability at 48 h, 50 µM in series [3] stood at 0%. For the same compound, in the series on SARS-CoV-2 [4], the inhibition at 50 µM was determined as 94.5%. The compound also showed a concentration for half-maximal inhibition (IC50) in series [7] of 9.12 µM. In series [6], this compound displayed an inhibition of 87.7%.

`Clc1cc(Nc2ncnc3ccccc23)ccc1OCc1ccccc1`: in series [3], the viability at 48 h, 50 µM was found to be 49.3%. Moreover, the inhibition at 50 µM in the series with SARS-CoV-2 [4] worked out at 25.1%. In series [7], the IC50 came to 3.97 µM. This compound displayed an inhibition in series [6] of 74.6%.

For the compound `Fc1cccc(COc2ccc(Nc3ncnc4ccccc34)cc2Cl)c1`, the viability at 48 h, 50 µM in series [3] came to 44.8%. For the same compound, the inhibition at 50 µM in the series with SARS-CoV-2 [4] stood at 43.7%. In series [7], this compound yielded an IC50 of 3.18 µM. Besides, the inhibition in series [6] was found to be 82.6%.

For `O=C(Nc1ccccc1Cl)c1ccc(COc2ccc(Nc3ncnc4ccccc34)cc2Cl)cc1`, in series [3], the viability at 48 h, 50 µM worked out at 3.64%. For the same compound, the inhibition at 50 µM in the series with SARS-CoV-2 [4] was 57.7%. Further, in series [6], the inhibition turned out to be 30.8%.

Consider `O=C(Nc1ccccc1)c1ccc(COc2ccc(Nc3ncnc4ccccc34)cc2Cl)cc1`, for which the viability at 48 h, 50 µM in series [3] is 8.05%. Besides, in the series on SARS-CoV-2 [4], the inhibition at 50 µM amounted to 0%. This compound returned an inhibition in series [6] of 66.3%.

On to `O=C(Nc1ccc(Cl)cc1)c1cccc(COc2ccc(Nc3ncnc4ccccc34)cc2Cl)c1`, for which the viability at 48 h, 50 µM in series [3] turned out to be 9.39%. In addition, the inhibition at 50 µM with SARS-CoV-2 [4] is 24.9%. The same compound displayed an inhibition in series [6] of 69.5%.

As for `O=C(Nc1ccccc1F)c1ccc(COc2ccc(Nc3ncnc4ccccc34)cc2Cl)cc1`, in series [3], the viability at 48 h, 50 µM turned out to be 0%. The inhibition at 50 µM in the series on SARS-CoV-2 [4] amounted to 86.7%. For the same compound, the inhibition in series [6] amounted to 66.4%.

`O=C(Nc1cccc(C(F)(F)F)c1)c1cccc(COc2ccc(Nc3ncnc4ccccc34)cc2Cl)c1`: the viability at 48 h, 50 µM in series [3] worked out at 26.6%. Moreover, the inhibition at 50 µM in the series with SARS-CoV-2 [4] was found to be 99%.

Consider `CCC(CC)COC(=O)[C@H](C)N[P@](=O)(OC[C@H]1OC(C#N)(c2ccc3c(N)ncnn23)[C@H](O)[C@@H]1O)Oc1ccccc1` (some centres undefined), for which the inhibition at 10 µM in the series with SARS-CoV-2 [2] is 99.9%. Also, the Activity result in the series on Vero C1008 is on record as “Non-toxic”.
